Measured values published in the supplement of paper PMC4862054.

Tests used:
Conditions in all cases: incubation time: 72 h
HCC1143 [1] = test: normalised response (% of control), CellTiter-Glo; higher = more viable cells (100 = DMSO, 0 = benzethonium chloride kill control)
How it was run: (§1)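 Every value is a normalised signal taken at one concentration of a dilution series. Compound was placed in 384-well plates at 5 concentrations in 10-fold steps over a compound-specific 10,000-fold range, and 20 µl of breast cancer cell suspension was seeded onto it. After 72 h, CellTox Green fluorescence (485/520 nm) was measured first and CellTiter-Glo luminescence second, following 10 min at room temperature. Each plate was scaled to 0.1 % DMSO (100) and a positive kill control (0).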

MDA-MB-468 = test: as above
How it was run: as §1

HCC1937 [2] = test: as above
How it was run: as §1

CAL-85-1 = test: as above
How it was run: as §1

MDA-MB-453 [3] = test: as above
How it was run: as §1

MFM-223 [4] = test: as above
How it was run: as §1

MDA-MB-436 = test: as above
How it was run: as §1

BT-549 [5] = test: as above
How it was run: as §1

MDA-MB-231 = test: as above
How it was run: as §1

HDQ-P1 [6] = test: as above
How it was run: as §1

Hs578T = test: as above
How it was run: as §1

CAL-148 [7] = test: as above
How it was run: as §1

SK-BR-3 = test: as above
How it was run: as §1

CAL-120 = test: as above
How it was run: as §1

BT-474 [8] = test: as above
How it was run: as §1

HCC1599 [9] = test: as above
How it was run: as §1

MCF-10A = test: as above
How it was run: as §1

CAL-51 [10] = test: as above
How it was run: as §1

MDA-MB-453 [11] = test: normalised viability (% of control), CellTiter-Blue; higher = more viable cells (about 100 = DMSO control)
Method: (§2)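 DSRT, CellTiter-Blue viability, 72 h incubation. Signal is normalised to DMSO and benzethonium chloride controls. Value is the normalised response at dose 7.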

CAL-51 [12] = test: as above
Method: as §2

HCC1143 [13] = test: normalised response (% of control), CellTox Green; higher = less cell death (100 = DMSO, 0 = benzethonium chloride kill control)
How it was run: as §1

DU-4475 = test: as above
How it was run: as §1

HCC1937 [14] = test: as above
How it was run: as §1

MFM-223 [15] = test: as above
How it was run: as §1

BT-549 [16] = test: as above
How it was run: as §1

HDQ-P1 [17] = test: as above
How it was run: as §1

CAL-148 [18] = test: as above
How it was run: as §1

BT-474 [19] = test: as above
How it was run: as §1

HCC1599 [20] = test: as above
How it was run: as §1

Row | SMILES | normalised response (HCC1143 [1]) [%] | normalised response (MDA-MB-468) [%] | normalised response (HCC1937 [2]) [%] | normalised response (CAL-85-1) [%] | normalised response (MDA-MB-453 [3]) [%] | normalised response (MFM-223 [4]) [%] | normalised response (MDA-MB-436) [%] | normalised response (BT-549 [5]) [%] | normalised response (MDA-MB-231) [%] | normalised response (HDQ-P1 [6]) [%] | normalised response (Hs578T) [%] | normalised response (CAL-148 [7]) [%] | normalised response (SK-BR-3) [%] | normalised response (CAL-120) [%] | normalised response (BT-474 [8]) [%] | normalised response (HCC1599 [9]) [%] | normalised response (MCF-10A) [%] | normalised response (CAL-51 [10]) [%] | normalised viability (MDA-MB-453 [11]) [%] | normalised viability (CAL-51 [12]) [%] | normalised response (HCC1143 [13]) [%] | normalised response (DU-4475) [%] | normalised response (HCC1937 [14]) [%] | normalised response (MFM-223 [15]) [%] | normalised response (BT-549 [16]) [%] | normalised response (HDQ-P1 [17]) [%] | normalised response (CAL-148 [18]) [%] | normalised response (BT-474 [19]) [%] | normalised response (HCC1599 [20]) [%]
1 | Nc1nc(Cl)nc2c1ncn2[C@@H]1O[C@H](CO)[C@@H](O)[C@@H]1F [Clofarabine] (1000 nM) | 44.1 | 43.7 | 89.9 | 47.4 | 127 | 103 | 22.9 | 35.7 | 91 | 79.4 | 91.9 | 58.5 | 42.7 | 75.3 | 78.7 | 61.7 | 68.1 | 26.9 | 53.6 | 52.1 | 112 | 103 | 109 | 99 | 70.7 | 101 | 67.1 | 100 | 81.2
2 | CC(C)C[C@H](NC(=O)[C@H](CCc1ccccc1)NC(=O)CN1CCOCC1)C(=O)N[C@@H](Cc1ccccc1)C(=O)N[C@@H](CC(C)C)C(=O)[C@@]1(C)CO1 [Carfilzomib] (100 nM) | 8.24 | 0.79 | 4.85 | 0.78 | 12.2 | 4.43 | 1.46 | 1.4 | 0.22 | 0.29 | 0.88 | 0.66 | 3.27 | 2.73 | 0.61 | 52 | 43.6 | 2.57 | 12.1 | 10.2 | 82.7 | 86.1 | 32.5 | 32.8 | 50.8 | -12.1 | 14.6 | 61.4 | 97.3
3 | O=NN(CCCl)C(=O)NC1CCCCC1 [Lomustine] (1000 nM) | 98.1 | 104 | 102 | 94.1 | 113 | 98 | 104 | 107 | 98.5 | 102 | 101 | 95.3 | 94.6 | 100 | 101 | 128 | 105 | 112 | 94.4 | 110 | 108 | 99.4 | 120 | 97 | 104 | 55.3 | 106 | 98.1 | 93.7
4 | NC1(c2ccc(-c3nc4ccn5c(=O)[nH]nc5c4cc3-c3ccccc3)cc2)CCC1 [MK-2206] (100 nM) | 98.2 | 94.6 | 96.6 | 109 | 76.5 | 98.5 | 108 | 90.3 | 103 | 99.2 | 97.2 | 97 | 83.5 | 99.8 | 97.4 | 104 | 107 | 95.1 | 84.4 | 100 | 97.8 | 104 | 63.5 | 92 | 133 | 108 | 109 | 103 | 108
5 | C[C@]12C=CC(=O)C=C1CC[C@@H]1[C@@H]2C(=O)C[C@@]2(C)[C@H]1CC[C@]2(O)C(=O)CO [Prednisone] (1000 nM) | 102 | 103 | 101 | 92.9 | 106 | 101 | 104 | 95.4 | 103 | 100 | 110 | 105 | 103 | 102 | 104 | 113 | 108 | 120 | 96.7 | 93.1 | 105 | 101 | 113 | 84.2 | 120 | 94.4 | 73 | 103 | 97.7
